Test: xn = mol fraction of the nth substance listed
Conditions: 101 kPa, Liquid, Vibrating tube method

C=C[Si](C)(C)O[Si](C)(C)C=C [1,3-diethenyl-1,1,3,3-tetramethyldisiloxane] + CCc1ccccc1
mass density [kg/m3]
Conditions	283.15 K	288.15 K	293.15 K	298.15 K	303.15 K
x1 = 0.0501	871.7	867.28	862.84	858.47	854.01
x1 = 0.1001	867.93	863.46	858.98	854.58	850.08
x1 = 0.1499	864.35	859.85	855.33	850.89	846.35
x1 = 0.2001	860.93	856.41	851.85	847.37	842.8
x1 = 0.25	857.68	853.12	848.52	844.02	839.42
x1 = 0.3	854.59	850	845.38	840.85	836.21
x1 = 0.3499	851.64	847.02	842.37	837.8	833.13
x1 = 0.4	848.82	844.17	839.49	834.91	830.22
x1 = 0.4501	846.13	841.46	836.76	832.14	827.42
x1 = 0.5	843.56	838.86	834.13	829.5	824.76
x1 = 0.5503	841.09	836.39	831.62	826.96	822.2
x1 = 0.6	838.73	834.01	829.22	824.53	819.75
x1 = 0.6501	836.45	831.7	826.89	822.19	817.38
x1 = 0.6999	834.3	829.53	824.71	819.97	815.14
x1 = 0.7502	832.18	827.39	822.55	817.79	812.94
x1 = 0.8001	830.16	825.33	820.48	815.7	810.84
x1 = 0.85	828.22	823.42	818.54	813.71	808.83
x1 = 0.8999	826.37	821.53	816.65	811.81	806.91
x1 = 0.9498	824.65	819.79	814.89	810.02	805.11
x1 = 1	822.79	817.88	812.97	808.11	803.18

C=C[Si](C)(C)O[Si](C)(C)C=C [1,3-diethenyl-1,1,3,3-tetramethyldisiloxane] + Clc1ccccc1
mass density [kg/m3]
Conditions	283.15 K	288.15 K	293.15 K	298.15 K	303.15 K
x1 = 0.05	1088.46	1083.08	1077.71	1072.36	1066.76
x1 = 0.0998	1062.49	1057.12	1051.77	1046.38	1040.76
x1 = 0.15	1038.61	1033.26	1027.97	1022.56	1017.01
x1 = 0.1996	1017.1	1011.78	1006.49	1001.12	995.49
x1 = 0.25	997.1	991.8	986.55	981.23	975.62
x1 = 0.2999	978.91	973.63	968.41	963.12	957.62
x1 = 0.35	962.04	956.8	951.57	946.3	940.79
x1 = 0.3999	946.48	941.25	936.1	930.87	925.47
x1 = 0.4496	932.12	926.93	921.78	916.57	911.17
x1 = 0.4999	918.61	913.45	908.32	903.14	897.77
x1 = 0.5499	906.09	900.94	895.84	890.68	885.33
x1 = 0.6	894.37	889.27	884.19	879.04	873.73
x1 = 0.6469	884.06	878.98	873.94	868.82	863.55
x1 = 0.6998	873.18	868.11	863.11	858.02	852.81
x1 = 0.7499	863.47	858.44	853.45	848.41	843.25
x1 = 0.7997	854.39	849.39	844.44	839.42	834.3
x1 = 0.8499	845.78	840.8	835.87	830.88	825.82
x1 = 0.8996	837.7	832.75	827.85	822.88	817.86
x1 = 0.9497	830	825.08	820.22	815.27	810.3
x1 = 1	822.68	817.77	812.94	808.01	803.06

Source: the NIST ThermoML archive (doi:10.1016/j.jct.2013.12.025)
